Test results: ChEMBL document CHEMBL4304836, “N-Trifluoromethylthiolated Sulfonimidamides and Sulfoximines: Anti-microbial, Anti-mycobacterial, and Cytotoxic Activity” (ACS Med Chem Lett, 2019)
Converted amounts (≈) assume the structure as drawn.

What was measured:
[1] = tested on: HepG2; assay: Cytotoxicity against human HepG2 cells assessed as cell membrane leakage by measuring LDH released incubated for 6 hrs by spectrophotometry; type: functional; conditions: HepG2, 6 h
[2] = tested on: HepG2; assay: Cytotoxicity against human HepG2 cells incubated for 6 hrs by MTT assay; type: functional, cell-based; conditions: HepG2, 6 h
[3] = tested on: Bacillus subtilis; assay: Antibacterial activity against Bacillus subtilis ATCC 6051 assessed as reduction in bacterial cell growth incubated for 24 hrs by two fold serial dilution; type: functional; conditions: ATCC 6051, 24 h
[4] = tested on: Staphylococcus aureus; assay: Antibacterial activity against Staphylococcus aureus ATCC 25923 assessed as reduction in bacterial cell growth incubated for 24 hrs by two fold serial dilution; type: functional; conditions: ATCC 25923, 24 h
[5] = tested on: Pseudomonas aeruginosa; assay: Antibacterial activity against Pseudomonas aeruginosa ATCC 27853 assessed as reduction in bacterial cell growth incubated for 24 hrs by two fold serial dilution; type: functional; conditions: ATCC 27853, 24 h
[6] = tested on: Escherichia coli; assay: Antibacterial activity against Escherichia coli ATCC 25922 assessed as reduction in bacterial cell growth incubated for 24 hrs by two fold serial dilution; type: functional; conditions: ATCC 25922, 24 h
[7] = tested on: Mycobacterium tuberculosis; assay: Antimycobacterial activity against Mycobacterium tuberculosis H37Rv assessed as reduction in bacterial cell growth incubated for 14 days by broth dilution method; type: functional; conditions: 336 h
[8] = tested on: Mycobacteroides abscessus; assay: Antimycobacterial activity against Mycobacterium abscessus ATCC 19977 assessed as reduction in bacterial cell growth incubated for 3 days by broth dilution method; type: functional; conditions: ATCC 19977, 72 h

| Compound | MCC [1] | IC50 [2] | MIC [3] | MIC [4] | MIC [5] | MIC [6] | MIC [7] | MIC [8] |
| --- | --- | --- | --- | --- | --- | --- | --- | --- |
| CS(=N)(=O)c1ccccc1 (configuration not stated) | 100 µg/mL | > 100 µg/mL | > 512 µg/mL | > 512 µg/mL | > 512 µg/mL | > 512 µg/mL |  |  |
| Cc1ccc(S(=O)(=NSC(F)(F)F)N2CCCC2)cc1 (configuration not stated) |  |  | 32 µg/mL (≈ 98.6 µM) | 64 µg/mL (≈ 197 µM) | > 512 µg/mL | > 512 µg/mL |  |  |
| O=S(=NSC(F)(F)F)(c1ccccc1)N1CCCC1 (configuration not stated) | 0.1 µg/mL | 15 µg/mL (≈ 48.3 µM) | 8 µg/mL (≈ 25.8 µM) | 32 µg/mL (≈ 103 µM) | 512 µg/mL (≈ 1650 µM) | 128 µg/mL (≈ 412 µM) | 4 to 8 µg/mL (≈ 12.9 to 25.8 µM) | > 64 µg/mL |
| CCN(CC)S(=O)(=NSC(F)(F)F)c1ccc([N+](=O)[O-])cc1 (configuration not stated) |  |  | 16 to 32 µg/mL (≈ 44.8 to 89.5 µM) | 32 to 64 µg/mL (≈ 89.5 to 179 µM) | > 512 µg/mL |  | 16 to 32 µg/mL (≈ 44.8 to 89.5 µM) | 16 to 32 µg/mL (≈ 44.8 to 89.5 µM) |
| O=S(=NSC(F)(F)F)(c1ccccc1)c1ccccc1 | 1 µg/mL | 90 µg/mL (≈ 284 µM) | 16 µg/mL (≈ 50.4 µM) | 32 µg/mL (≈ 101 µM) | 256 µg/mL (≈ 807 µM) | 256 µg/mL (≈ 807 µM) | 4 to 8 µg/mL (≈ 12.6 to 25.2 µM) | > 64 µg/mL |
| Cc1ccc(S(=O)(=NSC(F)(F)F)N2CCCCC2)cc1 (configuration not stated) | 0.1 µg/mL | 65 µg/mL (≈ 192 µM) |  |  |  |  | 4 to 8 µg/mL (≈ 11.8 to 23.6 µM) | > 64 µg/mL |
| CS(=O)(=NSC(F)(F)F)c1ccccc1 (configuration not stated) | 0.1 µg/mL | 15 µg/mL (≈ 58.8 µM) | 16 µg/mL (≈ 62.7 µM) | 16 µg/mL (≈ 62.7 µM) | 128 µg/mL (≈ 501 µM) | 16 µg/mL (≈ 62.7 µM) | 4 to 8 µg/mL (≈ 15.7 to 31.3 µM) | > 64 µg/mL |
| O=[N+]([O-])c1ccc(S(=O)(=NSC(F)(F)F)N2CCCC2)cc1 (configuration not stated) |  |  | 64 µg/mL (≈ 180 µM) | 32 µg/mL (≈ 90 µM) | > 512 µg/mL | > 512 µg/mL | 16 to 32 µg/mL (≈ 45 to 90 µM) | 16 to 32 µg/mL (≈ 45 to 90 µM) |
| O=S(=NSC(F)(F)F)(c1ccccc1)N1CCOCC1 (configuration not stated) |  |  | 32 µg/mL (≈ 98 µM) | 32 µg/mL (≈ 98 µM) | 256 µg/mL (≈ 784 µM) | 128 µg/mL (≈ 392 µM) |  |  |
| N=S(=O)(c1ccc([N+](=O)[O-])cc1)N1CCCC1 (configuration not stated) |  |  |  |  |  |  | > 64 µg/mL | > 64 µg/mL |
| O=[N+]([O-])c1ccc(S(=O)(=NSC(F)(F)F)N2CCOCC2)cc1 (configuration not stated) |  |  | 128 to 256 µg/mL (≈ 345 to 689 µM) | 128 to 256 µg/mL (≈ 345 to 689 µM) | 256 µg/mL (≈ 689 µM) | 128 to 256 µg/mL (≈ 345 to 689 µM) | 16 to 32 µg/mL (≈ 43.1 to 86.2 µM) | 32 to 64 µg/mL (≈ 86.2 to 172 µM) |
| Cc1ccc(S(=O)(=NSC(F)(F)F)N2CCOCC2)cc1 (configuration not stated) |  |  |  |  |  |  | 8 to 16 µg/mL (≈ 23.5 to 47 µM) | 16 to 32 µg/mL (≈ 47 to 94 µM) |
| CS(=O)(=NC(F)(F)F)c1ccccc1 (configuration not stated) |  | > 200 µg/mL | > 512 µg/mL | > 512 µg/mL | > 512 µg/mL | > 512 µg/mL | > 64 µg/mL |  |
| O=[N+]([O-])c1ccc(S(=O)(=NSC(F)(F)F)N2CCCCC2)cc1 (configuration not stated) |  |  | 64 µg/mL (≈ 173 µM) | 32 µg/mL (≈ 86.6 µM) |  |  | > 64 µg/mL | 32 to 64 µg/mL (≈ 86.6 to 173 µM) |
| N=S(=O)(c1ccccc1)N1CCOCC1 (configuration not stated) |  |  |  |  |  |  | > 64 µg/mL | > 64 µg/mL |
| O=S(=NC(F)(F)F)(c1ccccc1)c1ccccc1 | 200 µg/mL | 200 µg/mL (≈ 701 µM) | > 512 µg/mL | > 512 µg/mL | > 512 µg/mL | > 512 µg/mL | > 64 µg/mL |  |
